Assay results from patent US20020026052A1, “3-cyanoquinolines, 3-cyano-1,6-naphthyridines, and 3-cyano-1,7-naphthyridines as protein kinase inhibitors” (American Home Products Corporation, priority 2000, published 2002).
Where “and” joins values, the source holds several entries; their conditions need not be identical. Identical values can stand only once.

Legend:
[1] = biological target: Rat2 fibroblasts stably transformed with v-Src/Hu c-Src fusion gene (Homo sapiens, UniProt P12931, cells depend on it, form not given); assay: Anchorage Independent Src-transformed Fibroblast Proliferation Assay; type: cell-based, Rat; conditions: suspension growth, MTS reagent on Day 5; read-out: anch-indep src-tx fib IC50
Chain of Rat2 fibroblasts stably transformed with v-Src/Hu c-Src fusion gene (P12931 whole entry, change not shown, the tested form may be a part): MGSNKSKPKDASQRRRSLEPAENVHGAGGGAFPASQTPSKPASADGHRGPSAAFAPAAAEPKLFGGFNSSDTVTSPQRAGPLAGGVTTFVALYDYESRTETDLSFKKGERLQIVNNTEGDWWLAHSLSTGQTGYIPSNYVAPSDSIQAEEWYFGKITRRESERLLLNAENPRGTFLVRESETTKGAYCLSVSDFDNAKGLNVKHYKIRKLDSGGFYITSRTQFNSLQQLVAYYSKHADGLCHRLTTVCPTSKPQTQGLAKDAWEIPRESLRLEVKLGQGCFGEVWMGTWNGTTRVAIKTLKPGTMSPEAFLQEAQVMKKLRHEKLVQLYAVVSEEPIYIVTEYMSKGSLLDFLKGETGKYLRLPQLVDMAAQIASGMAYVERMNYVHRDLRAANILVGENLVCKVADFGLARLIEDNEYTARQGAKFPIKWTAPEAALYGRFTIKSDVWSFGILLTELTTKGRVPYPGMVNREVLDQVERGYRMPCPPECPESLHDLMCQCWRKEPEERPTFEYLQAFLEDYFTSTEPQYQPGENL
Method: Anchorage Independent Src-transformed Fibroblast Proliferation Assay
Rat2 fibroblasts stably transformed with a plasmid containing a CMV promotor controlled v-Src/Hu c-Src fusion gene in which the catalytic domain of human c-Src was inserted in place of the v-Src catalytic domain in the v-Src gene are used for the measurement of src dependent suspension growth. […] Multiple entries for a given compound indicate that it was tested multiple times.

SMILES	GI50 [1]	melting point
N#Cc1cnc2cc(C=CCCCN3CCOCC3)ccc2c1Nc1ccc(Cl)cc1Cl (mixture of isomers) [Example 12, 4-(2,4-Dichloroanilino)-7-[(E/Z)-5-(4-morpholinyl)-1-pentenyl]-3-quinoline-carbonitrile]	> 10000 nM	70 to 72 °C
COc1cc(Nc2c(C#N)cnc3cc(-c4ccc(CCCCN5CCOCC5)s4)ccc23)c(Cl)cc1Cl [Example 22, 4-(2,4-Dichloro-5-methoxyanilino)-7-{5-[4-(4-morpholinyl)butyl]-2-thienyl}-3-quinolinecarbonitrile]	600 nM	188 °C (dec.)
COc1cc(Nc2c(C#N)cnc3cc(-c4ccc(CN5CCC[C@@H]5C(N)=O)o4)ccc23)c(Cl)cc1Cl [Example 47, (2 R)-1-({5-[3-cyano-4-(2,4-dichloro-5-methoxyanilino)-7-quinolinyl]-2-furyl}methyl)-2-pyrrolidinecarboxamide]	1170 nM	121 to 126 °C
COc1cc(Nc2c(C#N)cnc3cc(-c4ccc(CN5CCN(C)CC5)n4C)ccc23)c(Cl)cc1Cl [Example 71, 4-(2,4-Dichloro-5-methoxyanilino)-7-{1-methyl-5-[(4-methyl-1-piperazinyl)methyl]-1H-pyrrol-2-yl}-3-quinolinecarbonitrile]	6800 nM	200 °C (dec.)
COc1cc(Nc2c(C#N)cnc3cc(-c4ccc(C=O)cc4)ccc23)c(Cl)cc1Cl [Example 83, 4-(2,4-dichloro-5-methoxyanilino)-7-(4-formylphenyl)-3-quinolinecarbonitrile]	3900 nM	248 to 251 °C
N#Cc1cnc2cc(-c3csc(CN4CCOCC4)c3)ccc2c1Nc1ccc(Cl)cc1Cl [Example 25, 4-(2,4-Dichloroanilino)-7-[5-(4-morpholinylmethyl)-3-thienyl]-3-quinolinecarbonitrile]	1300 nM and 930 nM	203 to 205 °C
COc1cc(Nc2c(C#N)cnc3cc(-c4ccc(C=O)n4C)ccc23)c(Cl)cc1Cl [Example 69, 4-(2,4-Dichloro-5-methoxyanilino)-7-(5-formyl-1-methyl-1H-pyrrol-2-yl)-3-quinolinecarbonitrile]	> 10000 nM	200 °C (dec.)
COc1cc(Nc2c(C#N)cnc3cc(-c4ccc(CN5CCN(CCO)CC5)o4)ccc23)c(Cl)cc1Cl [Example 75, 4-(2,4-Dichloro-5-methoxyanilino)-7-(5-{[4-(2-hydroxyethyl)-1-piperazinyl]methyl}-2-furyl)-3-quinolinecarbonitrile]	290 nM	176 to 181 °C
COc1cc(Nc2c(C#N)cnc3cc(-c4ccc(CNCCS(C)(=O)=O)o4)ccc23)c(Cl)cc1Cl [Example 77, 4-(2,4-Dichloro-5-methoxyanilino)-7-[5-({[2-(methylsulfonyl)ethyl]amino}methyl)-2-furyl]-3-quinolinecarbonitrile]	420 nM	171 to 174 °C
COc1cc(Nc2c(C#N)cnc3cc(-c4cc(CN5CCOCC5)c(CN5CCOCC5)s4)ccc23)c(Cl)cc1Cl [Example 20, 7-[4,5-Bis(4-morpholinylmethyl)-2-thienyl]-4-(2,4-dichloro-5-methoxyanilino)-3-quinolinecarbonitrile]	40 nM and 30 nM	118 to 125 °C
COc1cc(Nc2c(C#N)cnc3cc(-c4csc(CN5CCOCC5)c4)ccc23)c(Cl)cc1F [Example 79, 4-{2-Chloro-4-fluoro-5-methoxyanilino)-7-[5-(4-morpholinylmethyl)-3-thienyl]-3-quinolinecarbonitrile]	130 nM	185 to 187 °C
CCN1CCN(CCc2ccc(-c3ccc4c(Nc5cc(OC)c(Cl)cc5Cl)c(C#N)cnc4c3)cc2)CC1 [Example 32, 4-(2,4-Dichloro-5-methoxyanilino)-7-{4-[2-(4-ethyl-1-piperazinyl)ethyl]phenyl}-3-quinolinecarbonitrile]	2000 nM and 1900 nM	
COc1cc(Nc2c(C#N)cnc3cc(-c4ccc(CCN5CCOCC5)cc4)ccc23)c(Cl)cc1Cl [Example 27, 4-(2,4-Dichloro-5-methoxyanilino)-7-{4-[2-(4-morpholinyl)ethyl]phenyl}-3-quinolinecarbonitrile]	1020 nM	
COc1cc(Nc2c(C#N)cnc3cc(-c4ccc(CN5CCCCC5)s4)ccc23)c(Cl)cc1Cl [Example 78, 4-(2,4-Dichloro-5-methoxyanilino)-7-[5-(1-piperidinylmethyl)-2-thienyl]-3-quinolinecarbonitrile]	140 nM	
COc1cc(Nc2c(C#N)cnc3cc(-c4csc(CN5CCOCC5)c4)ccc23)c(Cl)cc1Cl [Example 24, 4-(2,4-Dichloro-5-methoxyanilino)-7-[5-(4-morpholinylmethyl)-3-thienyl]-3-quinolinecarbonitrile]	180 nM	
COc1cc(Nc2c(C#N)cnc3cc(-c4cc(CN5CCOCC5)cs4)ccc23)c(Cl)cc1Cl [Example 68, 4-(2,4-Dichloro-5-methoxyanilino)-7-[4-(4-morpholinylmethyl)-2-thienyl]-3-quinolinecarbonitrile]	120 nM	
COc1cc(Nc2c(C#N)cnc3cc(-c4ccc(CN5CCOCC5)cc4)c(OC)cc23)c(Cl)cc1Cl [Example 37, 4-(2,4-Dichloro-5-methoxyanilino)-6-methoxy-7-[4-(4-morpholinylmethyl)phenyl]-3-quinolinecarbonitrile]	1590 nM and 1490 nM	
COc1cc(Nc2c(C#N)cnc3cc(-c4ccc(CN5CCOCC5)cc4)ccc23)c(Cl)cc1Cl [Example 29, 4-(2,4-Dichloro-5-methoxyanilino)-7-[4-(4-morpholinylmethyl)phenyl]-3-quinolinecarbonitrile]	540 nM and 500 nM	
COc1cc(Nc2c(C#N)cnc3cc(-c4ccc(CNCCS(=O)(=O)c5ccccc5)n4C)ccc23)c(Cl)cc1Cl [Example 72, 4-(2,4-dichloro-5-methoxyanilino)-7-[1-methyl-5-({[2-(phenylsulfonyl)ethyl]amino}methyl)-1H-pyrrol-2-yl]-3-quinolinecarbonitrile]	> 10000 nM	

Further lines, results first:

GI50 [1]	melting point	SMILES
390 nM	278 to 280 °C	COC(=O)C1CCN(Cc2ccc(-c3ccc4c(Nc5cc(OC)c(Cl)cc5Cl)c(C#N)cnc4c3)cc2)CC1 [Example 231, Methyl 1-{4-[3-cyano-4-(2,4-dichloro-5-methoxyanilino)-7-quinolinyl]benzyl}-4-piperidinecarboxylate]
90 nM	110 to 115 °C	COc1ccc(Cl)c(Nc2c(C#N)cnc3cc(-c4csc(CN5CCOCC5)c4)ccc23)c1 [Example 131, 4-(2-Chloro-5-methoxyanilino)-7-[5-(4-morpholinylmethyl)-3-thienyl]-3-quinolinecarbonitrie]
> 10000 nM	210 to 212 °C	COc1ccc(-c2ccc3c(Nc4cc(OC)c(Cl)cc4Cl)c(C#N)cnc3c2)cc1 [Example 194, 4-(2,4-Dichloro-5-methoxyanilino)-7-(4-methoxyphenyl)-3-quinolinecarbonitrile]
2100 nM	67 to 70 °C	CCOC(=O)C1CCCN(Cc2ccc(-c3ccc4c(Nc5cc(OC)c(Cl)cc5Cl)c(C#N)cnc4c3)cc2)C1 (stereo not drawn) [Example 148, Ethyl 1-(4-{3-cyano-4-[(2,4-dichloro-5-methoxyphenyl)amino]-7-quinolinyl}benzyl)-3-piperidinecarboxylate]
92 nM	142 to 144 °C	CCOC(=O)CC1CCN(Cc2ccc(-c3ccc4c(Nc5cc(OC)c(Cl)cc5Cl)c(C#N)cnc4c3)cc2)CC1 [Example 144, Ethyl (1-{4-[3-cyano-4-(2,4-dichloro-5-methoxyanilino)-7-quinolinyl]benzyl}-4-piperidinyl) acetate]
10200 nM	198 to 201 °C	COc1cc(Nc2c(C#N)cnc3cc(-c4ccc(CNCCS(=O)(=O)c5ccccc5)cc4)ccc23)c(Cl)cc1Cl [Example 85, 4-(2,4-dichloro-5-methoxyanilino)-7-[4-({[2-(phenylsulfonyl)ethyl)amino}methyl)phenyl]-3-quinolinecarbonitrile]
720 nM	105 to 108 °C	COc1cc(Nc2c(C#N)cnc3cc(C#CCN4CCOCC4)c(OC)cc23)c(Cl)cc1Cl [Example 166, 4-(2,4-Dichloro-5-methoxyanilino)-6-methoxy-7-[3-(4-morpholinyl)-1-propynyl]-3-quinolinecarbonitrile]
500 nM and 520 nM	248 to 251 °C	COc1cc(Nc2c(C#N)cnc3cc(-c4ccc(CN5CCS(=O)(=O)CC5)cc4)ccc23)c(Cl)cc1Cl [Example 150, 4-[(2,4-Dichloro-5-methoxyphenyl)amino]-7-{4-[(1,1-dioxido-4-thiomorpholinyl)methyl]phenyl}-3-quinolinecarbonitrile]
4800 nM and 3800 nM	215 to 217 °C	COc1cc(Nc2c(C#N)cnc3cc(C#CCCl)ccc23)c(Cl)cc1Cl [Example 152, 7-(3-Chloro-1-propynyl)-4-[(2,4-dichloro-5-methoxyphenyl)amino]-3-quinolinecarbonitrile]
170 nM		COc1cc(Nc2c(C#N)cnc3cc(-c4csc(CN5CCC(O)CC5)c4)ccc23)c(Cl)cc1Cl [Example 192, 4-(2,4-Dichloro-5-methoxyanilino)-7-{5-[(4-hydroxy-1-piperidinyl)methyl]-3-thienyl}-3-quinolinecarbonitrile]
> 10000 nM		COc1cc(Nc2c(C#N)cnc3cc(-c4ccccc4CN4CCOCC4)ccc23)c(Cl)cc1Cl [Example 115, 4-(2,4-Dichloro-5-methoxyanilino)-7-[2-(4-morpholinylmethyl)phenyl]-3-quinolinecarbonitrile]
> 10000 nM		COc1cc(Nc2c(C#N)cnc3cc(/C=C/c4ccccc4)ccc23)c(Cl)cc1Cl [Example 139, 4-(2,4-Dichloro-5-methoxyanilino)-7-[(E)-2-phenylethenyl]-3-quinolinecarbonitrile]
